Results on 85 compounds are retold here after PubChem BioAssay AID686998 (Broad Institute, 2013).

Values joined by “and” are separate entries in the source; they are usually repeats but may differ in a detail not shown here. Equal values may be shown once. Records with an inconclusive call do not appear. Active and inactive are the calls of the source.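 The calls were made as follows: active = falling signal with fitted half-maximal potency no higher than twice the top valid tested dose; inconclusive = poor fit quality, or flat fit spanning -70% to -30%; inactive = potency over limit, rising signal, or flat fit inside 30%.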 A value given as a limit tells only on which side of the number the result lay.

In this assay the test system is Cryptococcus neoformans growth, Alamar Blue, 24 h. In words: Cryptococcus neoformans growth inhibition, dose response, Alamar Blue, cherry-picks (AID 686998).
With `O=C(Nc1ccc(N2CCOCC2)cc1N1CCOCC1)c1cccc([N+](=O)[O-])c1`, the IC50 was 67 µM.

For `CCN1C(=S)N[C@@H](c2cccc(F)c2)C(C(=O)OC)=C1C`, the IC50 was > 70 µM (inactive).

In the case of `Cc1ccc(NC(=S)Nc2ccc(Cl)c(Cl)c2)c(OC(F)F)c1`, the IC50 is 20.6 µM.

As to `Cc1c(C(=O)NC(=S)Nc2ccc(N3CCOCC3)cc2)cccc1[N+](=O)[O-]`, the IC50 is 34.7 µM.

In the case of `Cc1cccc(C)c1NC(=O)C1(C)CCC(=O)N1CCCn1ccnc1` (stereo not given), the IC50 is less than 0.26 µM.

Consider `CC(C)NC(=O)Nc1ccc2c(c1)C(=O)N([C@H](C)CO)C[C@H](C)[C@H](CN(C)Cc1ccncc1)OCCCC[C@H](C)O2`, for which the IC50 is 54.6 µM.

Consider `Cc1cc(Cl)ccc1NC(=S)NCc1ccc(F)cc1`, for which the IC50 is 15.5 µM.

Turning to `CNC(=O)CN(c1ccc(OC)cc1)S(=O)(=O)c1ccc(F)cc1`, the IC50 is > 70 µM (inactive).

As for `O=C(COc1ccccc1)NCc1ccccc1`, the IC50 is 2.84 µM.

Regarding `Cc1ccc(/C=C2\SC(=S)N(NS(=O)(=O)c3ccc(C)cc3)C2=O)cc1`, the IC50 was 12.7 µM.

Regarding `COC(=O)C1=C(C)N(Cc2ccc(Cl)cc2)C(=S)NC1c1cccc(F)c1` (stereo not given), the IC50 was 20.4 µM.

Take `Cc1cc(C(=O)Nc2cccc3c2O[C@@H](CN(C)S(=O)(=O)c2ccccc2)[C@@H](C)CN([C@@H](C)CO)C3=O)n(C)n1`: the IC50 was 61.2 µM.

Consider `C[C@@H]1CCCCO[C@@H](CN(C)C(=O)NC2CCCCC2)[C@H](C)CN([C@@H](C)CO)C(=O)c2cc(NS(=O)(=O)c3cn(C)cn3)ccc2O1`, for which the 50% inhibitory concentration (IC50) was 44.3 µM.

As to `COC(=O)C1=C(C)N(Cc2ccc(F)cc2)C(=S)NC1c1cccc(Cl)c1` (stereo not given), the IC50 is 10.6 µM.

In the case of `COC(=O)C1=C(C)N(Cc2ccc(Cl)cc2)C(=S)NC1c1ccc(F)cc1` (stereo not given), the IC50 is 14.8 µM and 20.9 µM.

For the compound `COC(=O)C1=C(C)N(Cc2ccc(F)cc2)C(=S)NC1c1ccccc1` (stereo not given), the concentration for half-maximal inhibition (IC50) is 29.4 µM.

In the case of `COc1cc2c(C(=O)N(C)c3cc(Cl)ccc3OC)cn(C)c(=O)c2cc1OC`, the IC50 is 0.383 µM.

Regarding `CCC(=O)Nc1ccc2c(c1)OC[C@H](C)N(C(=O)c1ccc(F)cc1)C[C@@H](C)[C@@H](OC)CN(C)C2=O`, the IC50 is 48.2 µM.

For `COc1ccccc1NC(=O)c1cn(C)c(=O)c2cc(OC)c(OC)cc12`, the IC50 was 50.1 µM.

For the compound `Cc1ccc(NC(=S)NCc2ccc(Cl)cc2)c(OC(F)F)c1`, the IC50 was 10.2 µM.

For `COc1cccc(NC(=S)NC(=O)Cc2ccc(Cl)cc2)c1`, the IC50 was 5.24 µM.

Consider `Cc1noc(C)c1NC(=O)N(C)C[C@H]1Oc2ccc(NC(=O)C3CC3)cc2CC(=O)N([C@@H](C)CO)C[C@H]1C`, for which the IC50 was > 70 µM (inactive).

Take `O=C(NC(=S)Nc1ccc(Br)cc1)C1CCC1`: the IC50 was 15.8 µM.

Regarding `CN1c2ccc(-c3ccc(F)cc3)cc2[C@H]2[C@H](CCN2S(=O)(=O)c2cccc(F)c2)[C@H]1CO`, the IC50 was 6.07 µM.

Consider `CN1c2ccc(-c3ccc(F)cc3)cc2[C@@H]2[C@@H](CCN2C(=O)C2CCOCC2)[C@@H]1CO`, for which the IC50 was 0.756 µM.

Consider `Cc1ccc(C(=O)NC(=S)Nc2ccccc2N2CCCC2)cc1[N+](=O)[O-]`, for which the IC50 is 0.463 µM.

In the case of `Cc1ccc(C(=O)Nc2ccc3ncccc3c2)cc1`, the IC50 was 24 µM.

In the case of `CCNC(=O)C[C@H]1CC[C@@H](NC(=O)NC2CCCCC2)[C@H](CO)O1`, the IC50 is 53.1 µM.

As to `CC(=O)N[C@H]1CC[C@H](CCNC(=O)C2CCC2)O[C@@H]1CO`, the IC50 is > 70 µM (inactive).

Consider `C[C@H](CO)N1C[C@H](C)[C@@H](CN(C)C(=O)Nc2ccc3c(c2)OCO3)Oc2ccc(NS(=O)(=O)c3cccs3)cc2C1=O`, for which the IC50 was 64.4 µM.

As to `CNC[C@H]1Oc2ncc(C#CCC(C)C)cc2C(=O)N([C@H](C)CO)C[C@H]1C`, the IC50 was > 70 µM (inactive).

With `CCOC(=O)c1c(-c2ccc(-c3ccccc3)cc2)csc1NC(=O)CNCCN(C)C`, the IC50 is 15 µM.

As for `COc1ccc(N2CCN(C(=O)CSc3ncnc4c3cnn4-c3ccccc3C)CC2)cc1`, the IC50 was 53.8 µM.

Turning to `CN1c2ccc(Br)cc2[C@@H]2[C@@H](CCN2C(=O)Cc2cccnc2)[C@@H]1CO`, the IC50 was 2.15 µM.

On to `Cc1cc(C)c(NC(=O)CN2CCCCCC2)c(C)c1`, for which the IC50 was 0.858 µM.

Turning to `COC(=O)C1=C(C)N(Cc2ccc(Cl)cc2)C(=S)NC1c1ccc(Br)cc1` (stereo not given), the IC50 was 14.7 µM.

Consider `O=C(NC(=S)NCC1COc2ccccc2O1)c1ccccc1` (stereo not given), for which the IC50 was 11 µM.

On to `COc1cc(NC(=O)CN2CCN(S(=O)(=O)c3ccc(C(C)C)cc3)CC2)cc(OC)c1`, for which the half-inhibitory concentration (IC50) was 59.4 µM.

Take `Fc1ccccc1NC(=S)NCCc1cccc(Cl)c1`: the IC50 is 16 µM.

Turning to `COC(=O)C1=C(C)N(Cc2ccc(Cl)cc2)C(=S)NC1c1cccc(OC)c1` (stereo not given), the IC50 was 6.55 µM and 8.91 µM.

Consider `CC(C)NC(=O)N(C)C[C@H]1Oc2c(NS(=O)(=O)c3ccc(Cl)cc3)cccc2C(=O)N([C@@H](C)CO)C[C@@H]1C`, for which the IC50 is 41.8 µM.

Consider `CC(NC(=O)COc1ccccc1Cl)c1ccccc1` (stereo not given), for which the IC50 is 0.88 µM.

`Cc1ccccc1NC(=O)C(NC1CCCCC1)C(C)C` (stereo not given): the half-maximal inhibitory concentration (IC50) was 1.46 µM.

For `CCc1ccc(C(=O)NC(=S)Nc2ccccc2N2CCOCC2)cc1`, the IC50 was 9.06 µM.

In the case of `C[C@H]1CN([C@@H](C)CO)C(=O)c2cc(-c3ccccc3)cnc2O[C@@H]1CN(C)C(=O)c1ccccn1`, the IC50 is 42.3 µM.

Take `S=C(NCc1ccccc1)NCC1COc2ccccc2O1` (stereo not given): the 50% inhibitory concentration (IC50) is 21 µM.

Turning to `CC(=O)N[C@H]1CC[C@@H](CCNC(=O)C2CCC2)O[C@H]1CO`, the IC50 was 50.2 µM.

Regarding `COCC#Cc1cnc2c(c1)C(=O)N([C@@H](C)CO)C[C@H](C)[C@H](CN(C)C(=O)Nc1ccc(OC)cc1)O2`, the IC50 is > 70 µM (inactive).

Take `C[C@H](NC(=O)C[C@@H]1C=C[C@H](NC(=O)CN2CCOCC2)[C@H](CO)O1)c1ccccc1`: the IC50 was 44.8 µM.

In the case of `S=C(NCCCc1ccccc1)Nc1ccccc1`, the IC50 was 8.77 µM.

In the case of `CCOc1ccc(C(=O)NC(=S)Nc2ccccc2N2CCCCC2)cc1[N+](=O)[O-]`, the IC50 was 3.11 µM.

As for `CCc1ccc(C(C)NC(=S)NCc2ccc(F)cc2)cc1` (stereo not given), the 50% inhibitory concentration (IC50) is 7.31 µM.

Take `CCC(=O)N1[C@H](CO)[C@@H](c2ccc(-c3cccnc3)cc2)[C@@H]1CN(C)C(C)=O`: the IC50 was 33.6 µM.

In the case of `CNC[C@@H]1Oc2c(NS(=O)(=O)c3ccc(Cl)cc3)cccc2C(=O)N([C@H](C)CO)C[C@H]1C`, the IC50 is > 70 µM (inactive).

Turning to `Cc1ccc(C2CCN(C(=S)NC3CCCCC3)C2)cc1` (stereo not given), the IC50 was 9.63 µM.

With `COC(=O)C1=C(C)N(Cc2ccc(Br)cc2)C(=S)NC1c1cccc(Br)c1` (stereo not given), the IC50 is 6.53 µM.

As to `CCCn1c(=S)[nH]c2cc(Cl)ccc21`, the IC50 is 22.9 µM.

In the case of `C[C@H](CO)N1C[C@H](C)[C@H](CN(C)C(=O)NC2CCCCC2)OCCCC[C@H](C)Oc2ccc(NS(=O)(=O)c3cn(C)cn3)cc2C1=O`, the IC50 is 47.7 µM.

`CC(C)NC(=O)N(C)C[C@@H]1Oc2c(NC(=O)C3CCCCC3)cccc2C(=O)N([C@@H](C)CO)C[C@@H]1C`: the IC50 was 8.12 µM.

As to `COC(=O)C1=C(C)N(Cc2ccccc2)C(=S)NC1c1cccc(OC)c1` (stereo not given), the IC50 is 32.5 µM.

`O=C(NC(=S)Nc1ccccc1N1CCOCC1)c1ccccc1F`: the half-inhibitory concentration (IC50) is 20.9 µM.

For `COC(=O)C1=C(C)N(Cc2ccc(F)cc2)C(=S)NC1c1ccc(Cl)cc1` (stereo not given), the IC50 is 11.4 µM.

On to `Cc1c(Cl)cccc1NC(=S)NCCc1ccc(Cl)cc1`, for which the IC50 is 5.38 µM.

Take `Cc1ccc(S(=O)(=O)N(C)C[C@H]2Oc3c(cccc3N(C)C)C(=O)N([C@@H](C)CO)C[C@H]2C)cc1`: the IC50 was > 70 µM (inactive).

`COC(=O)C1=C(C)N(Cc2ccccc2)C(=O)N[C@H]1c1cccc(F)c1`: the IC50 is 53.8 µM.

Turning to `COCC(=O)Nc1ccc2c(c1)C(=O)N(C)C[C@H](OC)[C@@H](C)CN(C(=O)c1ccccc1)[C@@H](C)CO2`, the IC50 is > 70 µM (inactive).

As to `Fc1cccc(CCN2C(=S)NC[C@@H]2Cc2ccccc2)c1`, the IC50 is 7.13 µM.

As to `C[C@H](CO)N1C[C@H](C)[C@H](CN(C)Cc2ccc(Cl)c(Cl)c2)Oc2c(NC(=O)Nc3ccccc3)cccc2C1=O`, the half-inhibitory concentration (IC50) was 10.8 µM.

As for `C[C@@H]1CN([C@H](C)CO)C(=O)Cc2cc(NC(=O)CCCCCC(=O)Nc3ccccc3N)ccc2O[C@H]1CN(C)C(=O)Nc1ccccc1`, the IC50 is 4.69 µM.

For `N#C[C@H]1[C@@H](c2ccc(C#CCC3CCCC3)cc2)[C@@H](CO)N1C(=O)c1ccccn1`, the IC50 was 25.9 µM.

Regarding `C[C@H]1CN([C@@H](C)CO)C(=O)CCCn2cc(nn2)CO[C@@H]1CN(C)Cc1ccc(C(F)(F)F)cc1`, the IC50 is 30.7 µM.

`O=C(C[C@@H]1CC[C@@H]2[C@H](COC[C@@H](O)CN2C(=O)Nc2ccc(Cl)cc2)O1)NC1Cc2ccccc2C1`: the IC50 is 6.79 µM.

As for `CCOC(=O)NC(=S)Nc1ccc(C(C)(C)C)cc1`, the IC50 was 7.22 µM.

With `O=C(CN(c1ccccc1)S(=O)(=O)c1ccccc1)Nc1ccc(F)cc1`, the IC50 is 40.8 µM.

On to `COC(=O)C1=C(C)N(Cc2ccc(F)cc2)C(=S)NC1c1cccc(F)c1` (stereo not given), for which the IC50 was 22.1 µM.

For the compound `COc1cccc(S(=O)(=O)Nc2ccc3c(c2)[C@H]2C[C@@H](CC(=O)NC4CCCCC4)O[C@@H](CO)[C@H]2O3)c1`, the IC50 is 6.96 µM.

As to `COc1ccccc1/C=N/NC(=S)NCc1ccco1`, the IC50 is 12.8 µM.

With `Cc1noc(C)c1NC(=O)N(C)C[C@@H]1Oc2ccc(NC(=O)NC(C)C)cc2CC(=O)N([C@@H](C)CO)C[C@@H]1C`, the IC50 is > 70 µM (inactive).

For `CCC(C)(C(=O)Nc1ccccc1C)N(C(=O)CNC(C)=O)c1ccccc1C` (stereo not given), the IC50 is less than 0.26 µM.

Turning to `CC(C)NC(=O)Nc1ccc2c(c1)C(=O)N([C@@H](C)CO)C[C@@H](C)[C@@H](CN(C)C(=O)NC1CCCCC1)OCCCC[C@H](C)O2`, the IC50 was less than 0.26 µM.

For the compound `Cc1ccccc1NC(=S)NC(=O)CCc1ccccc1`, the IC50 was 5.62 µM.

For the compound `Fc1ccc(CNC(=S)NCc2cccc(Cl)c2)cc1`, the IC50 is 12.3 µM.

In the case of `C/C=C/c1ccc([C@@H]2[C@H]3CN(C(=O)Nc4ccc(OC)cc4)CCCCN3[C@H]2CO)cc1`, the IC50 was > 70 µM (inactive).

As for `Cc1noc(C)c1NC(=O)N(C)C[C@H]1OCCCC[C@@H](C)Oc2ccc(NC(=O)NC(C)C)cc2C(=O)N([C@H](C)CO)C[C@H]1C`, the IC50 is > 70 µM (inactive).

As to `CC(=O)c1cccc(NC(=S)NC2CCCCCCC2)c1`, the IC50 is 10.7 µM.
